Source: ChEMBL document CHEMBL3046147, “Synthesis and Herbicidal Activity of 1-Arylalkyl-3-pyrrolin-2-one Derivatives” (J Pestic Sci, 2000)

Assays:
[1] = tested on: Echinochloa oryzicola; experiment: Pre-emergence herbicide activity against Echinochloa oryzicola under greenhouse condition measured after 14 to 20 days; type: functional
[2] = tested on: Echinochloa oryzicola; experiment: Herbicide activity against Echinochloa oryzicola under greenhouse condition compound treated at 2 leaf-stage measured after 14 to 20 days; type: functional
[3] = tested on: Schoenoplectiella juncoides; experiment: Herbicide activity against Schoenoplectiella juncoides under greenhouse condition compound treated at emergence-stage measured after 14 to 20 days; type: functional
[4] = tested on: Oryza sativa; experiment: Phytotoxicity against two-leaf stage Oryza sativa cv. Nihonbare (rice) planted 3 cm depth measured after […]; type: organism-based; conditions: in vivo
[5] = tested on: Sagittaria pygmaea; experiment: Herbicide activity against Sagittaria pygmaea under greenhouse condition compound treated at 0.5 leaf-stage measured after 14 to 20 days; type: functional
[6] = tested on: Oryza sativa; experiment: Phytotoxicity against two-leaf stage Oryza sativa cv. Nihonbare (rice) planted 1 cm depth measured after […]; type: organism-based; conditions: in vivo

Row | Structure (SMILES) | MED [1] [g/acre] | MED [2] [g/acre] | MED [3] [g/acre] | MTD [4] [g/acre] | MED [5] [g/acre] | MTD [6] [g/acre]
1 | CC1=C(c2ccccc2)C(=O)N(C(C)(C)c2nc3ccccc3n2C)C1 | <10 | <5 | 40 | 40 | 20 | 80
2 | CC1=C(c2ccccc2C(F)(F)F)C(=O)N(C(C)(C)c2nc3ccccc3s2)C1 | 20 | <5 | 80 | 40 | 5 | 20
3 | CC1=C(Oc2ccccc2)C(=O)N(C(C)(C)c2nc3ccccc3s2)C1 | 80 |  | 80 | 40 | 40 | 40
4 | CCOc1ccc2nc(C(C)(C)N3CC(C)=C(c4ccccc4)C3=O)sc2c1 | 1.25 | <5 | 160 | 10 | 80 | 5
5 | CC1=C(c2ccccc2O)C(=O)N(C(C)(C)c2nc3ccccc3s2)C1 | 10 | <5 | 2.5 | 5 | 80 | 20
6 | COc1ccc(C2=C(C)CN(C(C)(C)c3nc4ccccc4s3)C2=O)cc1OC | 160 | <5 | 160 | 80 | 160 | 80
7 | CC1=C(c2ccccc2)C(=O)N(C(C)(C)c2cc3ccccc3s2)C1 | 0.313 | 5 | 80 | 20 | 160 | 10
8 | CC1=C(c2ccccc2)C(=O)N(C(C)(C)c2cc3ccccc3o2)C1 | 0.313 | 2.5 | 80 | 20 | 80 | 10
9 | CC1=C(c2cccc3ccccc23)C(=O)N(C(C)(C)c2nc3ccccc3s2)C1 | 80 |  | 80 | 80 | 80 | 80
10 | CC1=C(c2ccccc2)C(=O)N(C(C)(C)c2nc3ccc(Cl)cc3s2)C1 | 1.25 | <5 | 160 | 40 | 80 | 20
11 | CC1=C(c2ccccc2)C(=O)N(C(C)(C)c2nc3cccnc3s2)C1 | 0.313 | 2.5 | 2.5 | 0.313 | 5 | > 0.313
12 | CC1=C(c2ccccc2)C(=O)N(C(C)(C)c2nc3c(C)cccc3s2)C1 | 2.5 | <5 | 160 | 20 | 80 | 5
13 | CC1=C(c2ccccc2C#N)C(=O)N(C(C)(C)c2nc3ccccc3s2)C1 | 10 | <5 | 5 | 5 | 40 | > 5
14 | CC1=C(c2ccccc2)C(=O)N(C(C)(C)c2cccs2)C1 | 5 | <10 | 10 | 20 | 20 | 10
15 | CC1=C(c2ccccc2)C(=O)N(C(C)(C)c2ccsc2)C1 | 5 | <10 | 5 | 40 | 20 | 20
16 | CC1=C(c2cccnc2)C(=O)N(C(C)(C)c2nc3ccccc3s2)C1 | 2.5 | <5 | 2.5 | 10 | <5 | 5
17 | CC1=C(c2ccccc2)C(=O)N(C(C)(C)c2ccccn2)C1 | 20 |  | 40 |  | 80 | 
18 | CC1=C(c2ccccc2)C(=O)N(C(C)(C)c2nc3cc(Cl)ccc3s2)C1 | 0.625 | <5 | 40 | 40 | 80 | 10
19 | CC1=C(c2ccccc2)C(=O)N(C(C)(C)c2nc3cc(C(=O)O)ccc3s2)C1 | 80 | <5 | 80 | 20 | 80 | 10
20 | CC1=C(c2cccc(C(F)(F)F)c2)C(=O)N(C(C)(C)c2nc3ccccc3s2)C1 | 80 | <5 | 160 | 20 | 160 | 20
21 | CC1=C(c2ccc(F)cc2F)C(=O)N(C(C)(C)c2nc3ccccc3s2)C1 | 1.25 | <5 | 10 | 10 | 10 | > 5
22 | COc1ccc(C2=C(C)CN(C(C)(C)c3nc4ccccc4s3)C2=O)cc1 | 20 | <5 | 80 | 40 | 80 | 10
23 | CC1=C(/C=C/c2ccccc2)C(=O)N(C(C)(C)c2nc3ccccc3s2)C1 | 160 | <5 | 80 | 80 | 80 | 80
24 | CC1=C(c2ccc(-c3ccccc3)cc2)C(=O)N(C(C)(C)c2nc3ccccc3s2)C1 | <10 | <5 | 160 | 80 | 160 | 80
25 | CC1=C(c2ccccc2)C(=O)N(C(C)(C)c2nc3ccc(F)cc3s2)C1 | 5 | <5 | 40 | 20 | 40 | 5
26 | CC1=C(c2ccccc2)C(=O)N(C(C)(C)c2nc3cc(C(F)(F)F)ccc3s2)C1 | 80 | <5 | 80 | 20 | 160 | 20
27 | CC1=C(c2ccccc2)C(=O)N(C(C)(C)c2ncc(C(F)(F)F)cc2Cl)C1 | <5 | <5 | 80 | 20 | 80 | 5
28 | CC1=C(c2ccccc2)C(=O)N(C(C)(C)c2nc3cc(Br)ccc3s2)C1 | 20 |  | 160 | 80 | 160 | 80
